Converted amounts (≈) assume the structure as drawn.
Columns and labels:
Assay type in all cases: functional
[1] = system: Staphylococcus aureus; test: Antibacterial activity against erythromycin-susceptible Staphylococcus aureus ATCC 25923 by standard broth microdilution method
[2] = system: Escherichia coli; test: Antibacterial activity against penicillin-susceptible Escherichia coli ATCC 25922 by standard broth microdilution method
[3] = system: Bacillus subtilis; test: Antibacterial activity against penicillin-susceptible Bacillus subtilis ATCC 9372 by standard broth microdilution method
[4] = system: Pseudomonas aeruginosa; test: Antibacterial activity against penicillin-susceptible Pseudomonas aeruginosa ATCC 27853 by standard broth microdilution method
[5] = system: Streptococcus pneumoniae; test: Antibacterial activity against erythromycin-resistant Streptococcus pneumoniae AB11 expressing ermB and me/A genes by standard broth microdilution method
[6] = system: Streptococcus pneumoniae; test: Antibacterial activity against erythromycin-resistant Streptococcus pneumoniae B1 expressing ermB gene by standard broth microdilution method
[7] = system: Streptococcus pyogenes; test: Antibacterial activity against erythromycin resistant Streptococcus pyogenes R1 by standard broth microdilution method
[8] = system: Staphylococcus aureus; test: Antibacterial activity against methicillin-resistant Staphylococcus aureus ATCC 43300 by standard broth microdilution method
[9] = system: Streptococcus pyogenes; test: Potency index, ratio of MIC of CAM to MIC of compound for antibacterial activity against erythromycin resistant Streptococcus pyogenes R1
[10] = system: Streptococcus pyogenes; test: Potency index, ratio of MIC of AZM to MIC of compound for antibacterial activity against erythromycin resistant Streptococcus pyogenes R1

For CC[C@H]1OC(=O)[C@H](C)C(=O)[C@H](C)[C@@H](O[C@H]2O[C@@H](C)C[C@@H](N(C)C)[C@@H]2O)[C@](C)(OC)C[C@@H](C)C(=O)[C@H](C)[C@@H](OC(=O)NCCn2cc(-c3ccc(OC)cc3)nn2)[C@]1(C)O, the MIC [1] was 16 µg/mL (≈ 19.2 µM), the MIC [2] was > 128 µg/mL and the MIC [3] was 4 µg/mL (≈ 4.81 µM). The MIC [4] was 128 µg/mL (≈ 154 µM), the MIC [5] was 256 µg/mL (≈ 308 µM) and the MIC [6] was > 256 µg/mL. The MIC [7] was 256 µg/mL (≈ 308 µM) and the MIC [8] was > 256 µg/mL.

In the case of CC[C@H]1OC(=O)[C@H](C)C(=O)[C@H](C)[C@@H](O[C@H]2O[C@@H](C)C[C@@H](N(C)C)[C@@H]2O)[C@](C)(OC)C[C@@H](C)C(=O)[C@H](C)[C@@H](OC(=O)NCCn2cc(-c3cccc(F)c3)nn2)[C@]1(C)O, the MIC [1] is reported as 8 µg/mL (≈ 9.76 µM), the MIC [2] is reported as > 128 µg/mL and the MIC [3] is reported as 4 µg/mL (≈ 4.88 µM). It also gave an MIC [4] of 128 µg/mL (≈ 156 µM), an MIC [5] of 128 µg/mL (≈ 156 µM) and an MIC [6] of 256 µg/mL (≈ 312 µM). It also gave an MIC [7] of 128 µg/mL (≈ 156 µM) and an MIC [8] of 256 µg/mL (≈ 312 µM).

For CCOc1ccc(-c2cn(CCNC(=O)O[C@@H]3[C@@H](C)C(=O)[C@H](C)C[C@@](C)(OC)[C@H](O[C@H]4O[C@@H](C)C[C@@H](N(C)C)[C@@H]4O)[C@@H](C)C(=O)[C@@H](C)C(=O)O[C@H](CC)[C@@]3(C)O)nn2)cc1, the MIC [1] was 16 µg/mL (≈ 18.9 µM), the MIC [2] was > 128 µg/mL and the MIC [3] was 16 µg/mL (≈ 18.9 µM). For the same molecule, the MIC [4] was 128 µg/mL (≈ 151 µM), the MIC [5] was 256 µg/mL (≈ 303 µM) and the MIC [6] was > 256 µg/mL. For the same molecule, the MIC [7] was 128 µg/mL (≈ 151 µM) and the MIC [8] was > 256 µg/mL.

With CC[C@H]1OC(=O)[C@H](C)C(=O)[C@H](C)[C@@H](O[C@H]2O[C@@H](C)C[C@@H](N(C)C)[C@@H]2O)[C@](C)(OC)C[C@@H](C)C(=O)[C@H](C)[C@@H](OC(=O)NCCn2cc(-c3ccc(C(C)(C)C)cc3)nn2)[C@]1(C)O the MIC [1] was 32 µg/mL (≈ 37.3 µM), the MIC [2] was > 128 µg/mL and the MIC [3] was 8 µg/mL (≈ 9.32 µM). It also gave an MIC [4] of 128 µg/mL (≈ 149 µM), an MIC [5] of 128 µg/mL (≈ 149 µM) and an MIC [6] of 128 µg/mL (≈ 149 µM). For the same molecule, the MIC [7] was 64 µg/mL (≈ 74.6 µM) and the MIC [8] was 256 µg/mL (≈ 298 µM).

In the case of CC[C@H]1OC(=O)[C@H](C)[C@@H](O[C@H]2C[C@@](C)(OC)[C@@H](O)[C@H](C)O2)[C@H](C)[C@@H](O[C@@H]2O[C@H](C)C[C@H](N(C)C)[C@H]2O)[C@](C)(O)C[C@@H](C)CN(C)[C@H](C)[C@@H](O)[C@]1(C)O [AZITHROMYCIN], the MIC [1] is reported as 0.25 µg/mL (≈ 0.334 µM), the MIC [2] is reported as > 128 µg/mL and the MIC [3] is reported as 0.25 µg/mL (≈ 0.334 µM). The MIC [4] was 4 µg/mL (≈ 5.34 µM), the MIC [5] was 256 µg/mL (≈ 342 µM) and the MIC [6] was > 256 µg/mL. For the same molecule, the MIC [7] was 256 µg/mL (≈ 342 µM) and the MIC [8] was > 256 µg/mL.

CC[C@H]1OC(=O)[C@H](C)C(=O)[C@H](C)[C@@H](O[C@H]2O[C@@H](C)C[C@@H](N(C)C)[C@@H]2O)[C@](C)(OC)C[C@@H](C)C(=O)[C@H](C)[C@@H](OC(=O)NCCn2cc(-c3cccc(C)c3)nn2)[C@]1(C)O was tested, and the MIC [1] was 32 µg/mL (≈ 39.2 µM), the MIC [2] was > 128 µg/mL and the MIC [3] was 8 µg/mL (≈ 9.8 µM). The MIC [4] was 128 µg/mL (≈ 157 µM), the MIC [5] was 256 µg/mL (≈ 314 µM) and the MIC [6] was > 256 µg/mL. The MIC [7] was 256 µg/mL (≈ 314 µM) and the MIC [8] was > 256 µg/mL.

With CCc1ccc(-c2cn(CCNC(=O)O[C@@H]3[C@@H](C)C(=O)[C@H](C)C[C@@](C)(OC)[C@H](O[C@H]4O[C@@H](C)C[C@@H](N(C)C)[C@@H]4O)[C@@H](C)C(=O)[C@@H](C)C(=O)O[C@H](CC)[C@@]3(C)O)nn2)cc1 the MIC [1] was 32 µg/mL (≈ 38.6 µM), the MIC [2] was > 128 µg/mL and the MIC [3] was 4 µg/mL (≈ 4.82 µM). The MIC [4] was 128 µg/mL (≈ 154 µM), the MIC [5] was 256 µg/mL (≈ 308 µM) and the MIC [6] was > 256 µg/mL. The MIC [7] was 128 µg/mL (≈ 154 µM) and the MIC [8] was > 256 µg/mL.

CC[C@H]1OC(=O)[C@H](C)C(=O)[C@H](C)[C@@H](O[C@H]2O[C@@H](C)C[C@@H](N(C)C)[C@@H]2O)[C@](C)(OC)C[C@@H](C)C(=O)[C@H](C)[C@@H](OC(=O)NCCCn2cc(-c3ccc(C(C)(C)C)cc3)nn2)[C@]1(C)O was tested, and the MIC [1] was 16 µg/mL (≈ 18.3 µM), the MIC [2] was > 128 µg/mL and the MIC [3] was 16 µg/mL (≈ 18.3 µM). For the same molecule, the MIC [4] was 128 µg/mL (≈ 147 µM), the MIC [5] was 64 µg/mL (≈ 73.4 µM) and the MIC [6] was 64 µg/mL (≈ 73.4 µM). The MIC [7] was 32 µg/mL (≈ 36.7 µM), the MIC [8] was 128 µg/mL (≈ 147 µM) and the Ratio [9] was 8 - 16. The Ratio [10] was 8 - 16.

In the case of CC[C@H]1OC(=O)[C@H](C)C(=O)[C@H](C)[C@@H](O[C@H]2O[C@@H](C)C[C@@H](N(C)C)[C@@H]2O)[C@](C)(OC)C[C@@H](C)C(=O)[C@H](C)[C@@H](OC(=O)NCCn2cc(-c3ccc(F)cc3)nn2)[C@]1(C)O, the MIC [1] is reported as 16 µg/mL (≈ 19.5 µM), the MIC [2] is reported as > 128 µg/mL and the MIC [3] is reported as 4 µg/mL (≈ 4.88 µM). The MIC [4] was 128 µg/mL (≈ 156 µM), the MIC [5] was 128 µg/mL (≈ 156 µM) and the MIC [6] was 256 µg/mL (≈ 312 µM). For the same molecule, the MIC [7] was 64 µg/mL (≈ 78.1 µM) and the MIC [8] was > 256 µg/mL.

CC[C@H]1OC(=O)[C@H](C)C(=O)[C@H](C)[C@@H](O[C@H]2O[C@@H](C)C[C@@H](N(C)C)[C@@H]2O)[C@](C)(OC)C[C@@H](C)C(=O)[C@H](C)[C@@H](OC(=O)NCCn2cc(-c3cccc([N+](=O)[O-])c3)nn2)[C@]1(C)O was tested, and the MIC [1] was 8 µg/mL (≈ 9.45 µM), the MIC [2] was > 128 µg/mL and the MIC [3] was 4 µg/mL (≈ 4.72 µM). For the same molecule, the MIC [4] was 128 µg/mL (≈ 151 µM), the MIC [5] was 128 µg/mL (≈ 151 µM) and the MIC [6] was 256 µg/mL (≈ 302 µM). The MIC [7] was 64 µg/mL (≈ 75.6 µM) and the MIC [8] was > 256 µg/mL.
